Test results as given in PMC2699670 (Anesthesiology, 2009).
Values belong to the compound of their own block, whether it stands above or below them.

Legend:
[1] = biological target: T1, rat Nav1.4 α-subunit (Rattus norvegicus, UniProt P15390); assay: whole-cell patch clamp, peak INa; type: cell-based
[2] = biological target: T1, rat Nav1.4 α-subunit; assay: whole-cell patch clamp, peak INa; type: cell-based; remark: listed apart in the source

T1 sequence (P15390 whole entry): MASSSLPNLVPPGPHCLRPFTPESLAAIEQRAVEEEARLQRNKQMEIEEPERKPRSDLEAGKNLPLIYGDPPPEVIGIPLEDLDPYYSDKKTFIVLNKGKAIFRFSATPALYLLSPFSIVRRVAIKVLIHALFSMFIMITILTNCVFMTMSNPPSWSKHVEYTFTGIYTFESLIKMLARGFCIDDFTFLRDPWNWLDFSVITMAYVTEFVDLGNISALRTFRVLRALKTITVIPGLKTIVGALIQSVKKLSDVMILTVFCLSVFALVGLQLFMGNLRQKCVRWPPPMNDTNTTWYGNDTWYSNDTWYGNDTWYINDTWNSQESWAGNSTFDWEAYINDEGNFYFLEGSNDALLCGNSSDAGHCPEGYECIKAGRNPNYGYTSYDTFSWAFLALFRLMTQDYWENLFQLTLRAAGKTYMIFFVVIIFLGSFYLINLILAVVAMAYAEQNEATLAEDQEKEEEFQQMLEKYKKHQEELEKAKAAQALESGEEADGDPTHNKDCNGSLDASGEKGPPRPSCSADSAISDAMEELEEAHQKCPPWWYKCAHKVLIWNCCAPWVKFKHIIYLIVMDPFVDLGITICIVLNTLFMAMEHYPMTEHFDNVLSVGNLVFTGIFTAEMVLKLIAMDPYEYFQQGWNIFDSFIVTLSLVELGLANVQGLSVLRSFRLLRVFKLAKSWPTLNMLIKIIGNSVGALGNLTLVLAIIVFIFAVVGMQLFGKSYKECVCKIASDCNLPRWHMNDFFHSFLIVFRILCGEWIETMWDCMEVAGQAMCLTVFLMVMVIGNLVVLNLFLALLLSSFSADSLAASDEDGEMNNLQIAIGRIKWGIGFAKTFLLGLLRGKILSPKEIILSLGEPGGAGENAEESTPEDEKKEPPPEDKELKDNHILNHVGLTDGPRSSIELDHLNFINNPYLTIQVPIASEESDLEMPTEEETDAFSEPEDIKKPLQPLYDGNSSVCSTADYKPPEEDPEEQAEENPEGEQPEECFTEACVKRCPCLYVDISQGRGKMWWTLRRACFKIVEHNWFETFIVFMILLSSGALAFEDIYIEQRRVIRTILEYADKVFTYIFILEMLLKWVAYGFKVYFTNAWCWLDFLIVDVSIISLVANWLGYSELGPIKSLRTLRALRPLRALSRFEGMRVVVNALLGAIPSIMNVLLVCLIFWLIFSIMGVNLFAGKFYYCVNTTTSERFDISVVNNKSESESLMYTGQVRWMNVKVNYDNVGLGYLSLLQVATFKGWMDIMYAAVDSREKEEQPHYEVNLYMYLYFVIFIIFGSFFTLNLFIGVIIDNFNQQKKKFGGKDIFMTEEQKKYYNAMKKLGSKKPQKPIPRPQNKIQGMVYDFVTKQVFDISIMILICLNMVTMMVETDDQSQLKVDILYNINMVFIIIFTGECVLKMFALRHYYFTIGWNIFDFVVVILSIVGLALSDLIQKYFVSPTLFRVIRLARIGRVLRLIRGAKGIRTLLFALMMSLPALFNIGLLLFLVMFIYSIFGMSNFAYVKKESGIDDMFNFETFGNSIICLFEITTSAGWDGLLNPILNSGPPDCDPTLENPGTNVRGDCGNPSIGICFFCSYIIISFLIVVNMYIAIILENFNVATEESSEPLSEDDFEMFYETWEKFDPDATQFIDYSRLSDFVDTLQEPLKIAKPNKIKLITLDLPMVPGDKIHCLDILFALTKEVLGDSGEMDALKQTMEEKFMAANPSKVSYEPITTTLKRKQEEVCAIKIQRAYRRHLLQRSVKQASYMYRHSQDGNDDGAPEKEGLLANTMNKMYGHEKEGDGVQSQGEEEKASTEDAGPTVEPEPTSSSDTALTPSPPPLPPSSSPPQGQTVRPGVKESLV

SMILES: FC(F)OC(F)(F)C(F)Cl (centres unmarked) [enflurane]
inhibition at 820 µM ([1]; read-out: % inhibition at 0.82 mM): 32 ± 6.7%

inhibition at 420 µM ([1]; read-out: % inhibition at 0.42 mM): 32 ± 3.5%
SMILES: FC(F)(F)C(Cl)Br (centres unmarked) [halothane]

inhibition at 460 µM ([1]; read-out: % inhibition at 0.46 mM): 19 ± 1.9%
IC50 [2]: 1160 µM
SMILES: FC(F)OC(Cl)C(F)(F)F (centres unmarked) [isoflurane]

inhibition at 440 µM ([1]; read-out: % inhibition at 0.44 mM): 17 ± 3.3%
SMILES: FCOC(C(F)(F)F)C(F)(F)F [sevoflurane]
